Earlier results, collected in patent publication US20230364026A1, “[…] NANOPARTICLE FORMULATIONS OF CANNABINOIDS AND C[…] WITH REDUCED OSTWALD RIPENING FOR ORAL, INHALATION, NASAL AND […] DELIVERY” (Luminus Biosciences, Inc., priority 2020, published 2023).

Tests used:
[1] = pH values ranging from 1.2 to 7.0
[2] = administered orally, human gastrointestinal tract
[3] = self-experiment, compared to THC

In the case of `CCCCCCC(C)(C)c1cc(O)c2c(c1)OC(C)(C)C1CCC(=O)CC21` (racemic) [Nabilone, (±)-trans-3-(1,1-dimethylheptyl)-6,6a,7,8,10,10a-hexahydro-1-hydroxy-6-6-dimethyl-9H-dibenzo[b,d] pyran-9-one], the solubility in water [1] is given as “less than 0.5 mg/L” and the oral absorption [2] is given as “completely absorbed”.

For `CCCCCCCC(C)(C)c1ccc([C@H]2CCC[C@@H](O)C2)c(O)c1` [CP 47,497-C8], the “duration of effects in humans” value [3] is listed as 5 to 6 h.

In the case of `CCCCCn1cc(C(=O)c2cccc3ccccc23)c2ccccc21` [JWH-018], the “duration of effects in humans” value [3] is listed as 1 to 2 h.
